Results as given in ChEMBL document CHEMBL1154488, “Synthesis, structure elucidation and antibacterial evaluation of new steroidal -5-en-7-thiazoloquinoxaline derivatives” (2008).
Converted amounts (≈) assume the structure as drawn.

Legend:
Type in all cases: functional
Escherichia coli [1] = test: Antibacterial activity against Escherichia coli at 30 ug/disk after 18 hrs by disk diffusion method; details: read-out: IZ
Escherichia coli [2] = test: Antibacterial activity against Escherichia coli after 18 hrs by macrodilution test
Escherichia coli [3] = test: Antibacterial activity against Escherichia coli after 18 hrs by disk diffusion method

O=C(N[C@H](CO)[C@H](O)c1ccc([N+](=O)[O-])cc1)C(Cl)Cl [CHLORAMPHENICOL]
zone of inhibition at 30 µg/disc (Escherichia coli [1]): 20 mm | MIC (Escherichia coli [2]): 32 µg/mL (≈ 99 µM)

Clc1nc2ccccc2nc1Cl
MIC (Escherichia coli [2]): 512 µg/mL (≈ 2570 µM) | inhibition zone (IZ) (Escherichia coli [3]): 6.2 mm

CC(C)CCC[C@@H](C)[C@H]1CC[C@H]2[C@@H]3/C(=N/NC(N)=S)C=C4CCCC[C@]4(C)[C@H]3CC[C@]12C
MIC (Escherichia coli [2]): 256 µg/mL (≈ 559 µM) | inhibition zone (IZ) (Escherichia coli [3]): 9.8 mm

CC(C)CCC[C@@H](C)[C@H]1CC[C@H]2[C@@H]3CC=C4C[C@@H](O)CC[C@]4(C)[C@H]3CC[C@]12C [CHOLESTEROL]
MIC (Escherichia coli [2]): 512 µg/mL (≈ 1320 µM) | inhibition zone (IZ) (Escherichia coli [3]): 5.8 mm

CC(C)CCC[C@@H](C)[C@H]1CC[C@H]2[C@@H]3/C(=N/Nc4nc5nc6ccccc6nc5s4)C=C4C[C@@H](Cl)CC[C@]4(C)[C@H]3CC[C@]12C
MIC (Escherichia coli [2]): 32 µg/mL (≈ 51.8 µM) | inhibition zone (IZ) (Escherichia coli [3]): 22.4 mm

CC(=O)O[C@H]1CC[C@@]2(C)C(=C/C(=N\Nc3nc4nc5ccccc5nc4s3)[C@H]3[C@@H]4CC[C@H]([C@H](C)CCCC(C)C)[C@@]4(C)CC[C@@H]32)C1
MIC (Escherichia coli [2]): 64 µg/mL (≈ 99.7 µM) | inhibition zone (IZ) (Escherichia coli [3]): 20.8 mm

CC(C)CCC[C@@H](C)[C@H]1CC[C@H]2[C@@H]3/C(=N/Nc4nc5nc6ccccc6nc5s4)C=C4CCCC[C@]4(C)[C@H]3CC[C@]12C
MIC (Escherichia coli [2]): 128 µg/mL (≈ 219 µM) | inhibition zone (IZ) (Escherichia coli [3]): 14 mm

CC(=O)O[C@H]1CC[C@@]2(C)C(=C/C(=N\NC(N)=S)[C@H]3[C@@H]4CC[C@H]([C@H](C)CCCC(C)C)[C@@]4(C)CC[C@@H]32)C1
MIC (Escherichia coli [2]): 128 µg/mL (≈ 248 µM) | inhibition zone (IZ) (Escherichia coli [3]): 13.2 mm

CC(C)CCC[C@@H](C)[C@H]1CC[C@H]2[C@@H]3/C(=N/NC(N)=S)C=C4C[C@@H](Cl)CC[C@]4(C)[C@H]3CC[C@]12C
MIC (Escherichia coli [2]): 64 µg/mL (≈ 130 µM) | inhibition zone (IZ) (Escherichia coli [3]): 14.8 mm
